Laboratory results taken from ChEMBL document CHEMBL4483862, “Open-source discovery of chemical leads for next-generation chemoprotective antimalarials” (2018).

Tested on: Plasmodium berghei
Test: Luciferase/luciferin-expressing antifolate-resistant parasites were used to infect a culture of HepG2 cells that were pre-incubated with compounds. Infected hepatocytes emit light due to the luciferase reaction. Assay results are presented as the percent inhibition of light emission compared to control. […]
Assay type: functional
Details: sporozoite; for IC90: read-out: LUCIFERASE INFECTION ASSAY - IC90

Structure (SMILES) | IC90 | also measured
COc1ccc(-c2csc3ncnc(N4CCN(c5ccccc5[N+](=O)[O-])CC4)c23)cc1 | > 10 µM | IC50 (HEPG2TOX_HILL_SLOPE 5.61, HEPG2TOX_R_SQUARED 0.324, PBLUC_HILL_SLOPE 1.94, 2.89, PBLUC_R_SQUARED 0.358, 0.293, read-out: LUCIFERASE INFECTION ASSAY - IC50): 6.64 µM
O=C(Cn1ncc(Cl)c(Cl)c1=O)N1CCc2ccccc21 | > 10 µM | IC50 (HEPG2TOX_HILL_SLOPE 5.62, HEPG2TOX_R_SQUARED 0.657, PBLUC_HILL_SLOPE 20.9, PBLUC_R_SQUARED 0.129, read-out: LUCIFERASE INFECTION ASSAY - IC50): 9.19 µM
N=C(N)NN=C1CCCCCCCCCCC1 | > 12 µM | IC50 (HEPG2TOX_HILL_SLOPE 5.24, 2.64, HEPG2TOX_R_SQUARED 0.916, 0.913, PBLUC_HILL_SLOPE 15.5, 3.20, PBLUC_R_SQUARED 0.175, 0.492, read-out: LUCIFERASE INFECTION ASSAY - IC50): 11.7 µM
Cc1ccc(Cl)cc1NC(=O)C[n+]1ccc(Cc2ccc([N+](=O)[O-])cc2)cc1 | > 10 µM | IC50 (HEPG2TOX_HILL_SLOPE 5.4, HEPG2TOX_R_SQUARED 0.89, PBLUC_HILL_SLOPE 4.32, PBLUC_R_SQUARED 0.492, read-out: LUCIFERASE INFECTION ASSAY - IC50): 6.22 µM
c1ccc2c(c1)oc1c(-c3ccc4nccn4c3)cccc12 | > 11.6 µM | IC50 (HEPG2TOX_HILL_SLOPE 5.27, HEPG2TOX_R_SQUARED 0.667, PBLUC_HILL_SLOPE 2.08, PBLUC_R_SQUARED 0.703, read-out: LUCIFERASE INFECTION ASSAY - IC50): 4.57 µM
Oc1ccc(Cl)cc1/C=C/c1ccc2cccc(O)c2n1 | 6.73 µM | IC50 (HEPG2TOX_HILL_SLOPE 5.53, HEPG2TOX_R_SQUARED 0.986, PBLUC_HILL_SLOPE 37.8, PBLUC_R_SQUARED 0.36, read-out: LUCIFERASE INFECTION ASSAY - IC50): 6.35 µM
Cc1c(Cl)cccc1N=C(SCC(=O)N1CCCCCC1)C(C#N)c1nc2ccccc2s1 (centres undefined) | > 10 µM | IC50 (HEPG2TOX_HILL_SLOPE 5.36, HEPG2TOX_R_SQUARED 0.816, PBLUC_HILL_SLOPE 12.3, PBLUC_R_SQUARED 0.271, read-out: LUCIFERASE INFECTION ASSAY - IC50): 8.92 µM
Cc1ccc(C(C)CCN2CCC3(CC2)C(=O)N(C2Cc4ccccc4C2)C(=O)N3CC(C)C)o1 (centres undefined) | > 6.91 µM | IC50 (HEPG2TOX_HILL_SLOPE 5.24, HEPG2TOX_R_SQUARED 0.932, PBLUC_HILL_SLOPE 15.5, PBLUC_R_SQUARED 0.389, read-out: LUCIFERASE INFECTION ASSAY - IC50): 6.38 µM
CCCNC(=O)c1c(NC(=O)c2ccc(F)c(F)c2F)nc2ccccn12 | > 8.77 µM | IC50 (HEPG2TOX_HILL_SLOPE 5.13, HEPG2TOX_R_SQUARED 0.252, PBLUC_HILL_SLOPE 2.06, PBLUC_R_SQUARED 0.791, read-out: LUCIFERASE INFECTION ASSAY - IC50): 6.47 µM
Oc1ccc(Cl)cc1/C=N/Nc1cccc(C(F)(F)F)c1 | > 10.5 µM | IC50 (HEPG2TOX_HILL_SLOPE 5.54, HEPG2TOX_R_SQUARED 0.477, read-out: LUCIFERASE INFECTION ASSAY - IC50): > 10.5 µM
COc1ccc(C(=O)OCC(=O)Nc2sccc2C(N)=O)cc1S(=O)(=O)N1CCCCC1C (centres undefined) | > 10 µM | IC50 (HEPG2TOX_HILL_SLOPE 5.31, HEPG2TOX_R_SQUARED 0.826, PBLUC_HILL_SLOPE 1.98, PBLUC_R_SQUARED 0.24, read-out: LUCIFERASE INFECTION ASSAY - IC50): 5.17 µM
COc1ccccc1NC(=O)NCc1nc(-c2ccccc2)c[nH]1 | 5.1 µM | IC50 (HEPG2TOX_HILL_SLOPE 5.47, HEPG2TOX_R_SQUARED 0.951, PBLUC_HILL_SLOPE 7.77, PBLUC_R_SQUARED 0.194, read-out: LUCIFERASE INFECTION ASSAY - IC50): 3.84 µM
COc1ccc(OC)c(CCNc2nc3cnc(-c4cccc(Cl)c4)cc3n2C)c1 | 1.4 µM | IC50 (HEPG2TOX_HILL_SLOPE 5.61, HEPG2TOX_R_SQUARED 0.886, PBLUC_HILL_SLOPE 7.64, PBLUC_R_SQUARED 0.579, read-out: LUCIFERASE INFECTION ASSAY - IC50): 1.05 µM
CC1CCc2ccccc2N1CC(=O)c1cccn1C (centres undefined) | > 10 µM | IC50 (HEPG2TOX_HILL_SLOPE 5.07, HEPG2TOX_R_SQUARED 0.0101, read-out: LUCIFERASE INFECTION ASSAY - IC50): > 10 µM
N#CC(Cc1cccc([N+](=O)[O-])c1)(c1ccccc1)c1ccccc1 | > 10 µM | IC50 (HEPG2TOX_HILL_SLOPE 5.53, HEPG2TOX_R_SQUARED 0.223, PBLUC_HILL_SLOPE 1.93, PBLUC_R_SQUARED 0.0999, read-out: LUCIFERASE INFECTION ASSAY - IC50): > 10 µM
O=C(NC1CCOc2ccccc21)c1ccccc1Oc1ccccc1 (centres undefined) | > 10 µM | IC50 (HEPG2TOX_HILL_SLOPE 5.41, HEPG2TOX_R_SQUARED 0.0143, read-out: LUCIFERASE INFECTION ASSAY - IC50): > 10 µM

Structure (SMILES) | IC90 | also measured
COc1ccc(C2c3c(C)nn(-c4ccccc4)c3N=C(c3ccccc3F)N2C2CC2)cc1 (centres undefined) | > 10 µM | IC50 (HEPG2TOX_HILL_SLOPE 5.27, HEPG2TOX_R_SQUARED 0.234, read-out: LUCIFERASE INFECTION ASSAY - IC50): > 10 µM
CCC(C)(C)c1ccc(Oc2ccc(NC(=O)c3ccc(OC(F)F)c(OC)c3)cc2)cc1 | > 10 µM | IC50 (HEPG2TOX_HILL_SLOPE 5.1, HEPG2TOX_R_SQUARED 0.781, PBLUC_HILL_SLOPE 1.15, PBLUC_R_SQUARED 0.697, read-out: LUCIFERASE INFECTION ASSAY - IC50): 2.6 µM
CCOC(=O)c1sc(N(NC(=O)c2ccccc2Cl)C(=O)c2ccccc2Cl)c2c1CC(C)(C)CC2=O | > 5.9 µM | IC50 (HEPG2TOX_HILL_SLOPE 5.11, HEPG2TOX_R_SQUARED 0.645, PBLUC_HILL_SLOPE 3.24, PBLUC_R_SQUARED 0.155, read-out: LUCIFERASE INFECTION ASSAY - IC50): 3.1 µM
COCCCN1C(=O)N(Cc2ccccc2)C(=O)C12CCN(Cc1cccc(C(F)(F)F)c1)CC2 | > 6.74 µM | IC50 (HEPG2TOX_HILL_SLOPE 5.47, HEPG2TOX_R_SQUARED 0.316, read-out: LUCIFERASE INFECTION ASSAY - IC50): > 6.74 µM
Cc1cc2c(cc1C)C(NCCc1ccccc1)=NC(C)(C)C2 | 5.1 µM | IC50 (HEPG2TOX_HILL_SLOPE 5.51, HEPG2TOX_R_SQUARED 0.604, PBLUC_HILL_SLOPE 9.09, PBLUC_R_SQUARED 0.396, read-out: LUCIFERASE INFECTION ASSAY - IC50): 4 µM
FC(F)(F)c1nc2ccccc2n1-c1cc(-c2ccccc2)n[nH]1 | > 10 µM | IC50 (HEPG2TOX_HILL_SLOPE 5.49, HEPG2TOX_R_SQUARED 0.606, read-out: LUCIFERASE INFECTION ASSAY - IC50): > 10 µM
COC(=O)c1c(C)[nH]c(C(=O)Nc2nc(-c3cc(C)sc3C)cs2)c1C | > 10 µM | IC50 (HEPG2TOX_HILL_SLOPE 5.44, HEPG2TOX_R_SQUARED 0.234, read-out: LUCIFERASE INFECTION ASSAY - IC50): > 10 µM
Cc1cc(C(O)(C(F)(F)F)C(F)(F)F)c(C)n1-c1ccc(N(C)C)cc1 | > 10 µM | IC50 (HEPG2TOX_HILL_SLOPE 5.45, HEPG2TOX_R_SQUARED 0.58, PBLUC_HILL_SLOPE 4.49, PBLUC_R_SQUARED 0.403, read-out: LUCIFERASE INFECTION ASSAY - IC50): 7.53 µM
COc1ccc(NS(=O)(=O)c2ccc3oc(Nc4cc(C)on4)nc3c2)cc1 | 9.75 µM | IC50 (HEPG2TOX_HILL_SLOPE 5.63, HEPG2TOX_R_SQUARED 0.393, PBLUC_HILL_SLOPE 4.89, PBLUC_R_SQUARED 0.566, read-out: LUCIFERASE INFECTION ASSAY - IC50): 6.22 µM
CCc1ccc(NC(=O)c2ccc(S(=O)(=O)N(C)C)cc2)cc1 | > 9.93 µM | IC50 (HEPG2TOX_HILL_SLOPE 5.62, HEPG2TOX_R_SQUARED 0.338, PBLUC_HILL_SLOPE 17.2, PBLUC_R_SQUARED 0.289, read-out: LUCIFERASE INFECTION ASSAY - IC50): 9.7 µM
N#Cc1cccc(CN2CCN3C(C(=O)Nc4ccc(Oc5ccccc5)cc4)=COC3=NC2=O)c1 | > 10 µM | IC50 (HEPG2TOX_HILL_SLOPE 5.43, HEPG2TOX_R_SQUARED 0.0351, read-out: LUCIFERASE INFECTION ASSAY - IC50): > 10 µM
FC(F)(F)c1cnc(N/N=C/c2cn(-c3ccccc3)nc2-c2cc3ccccc3o2)c(Cl)c1 | > 10 µM | IC50 (HEPG2TOX_HILL_SLOPE 5.1, HEPG2TOX_R_SQUARED 0.771, read-out: LUCIFERASE INFECTION ASSAY - IC50): > 10 µM
Cc1cccc(COc2cccc(C(=O)Nc3cccc(Cn4ccnc4)c3)c2)c1 | > 10 µM | IC50 (HEPG2TOX_HILL_SLOPE 5.55, HEPG2TOX_R_SQUARED 0.818, PBLUC_HILL_SLOPE 3.46, PBLUC_R_SQUARED 0.301, read-out: LUCIFERASE INFECTION ASSAY - IC50): 6.78 µM
S=C(NCc1ccccc1Cl)NC12CC3CC(CC(C3)C1)C2 | > 9.85 µM | IC50 (HEPG2TOX_HILL_SLOPE 5.09, HEPG2TOX_R_SQUARED 0.92, PBLUC_HILL_SLOPE 1.78, PBLUC_R_SQUARED 0.451, read-out: LUCIFERASE INFECTION ASSAY - IC50): 7.44 µM
CCC(C)NC(=O)c1c(NC(=O)c2ccc(F)cc2)nc2ccc(C)cn12 (centres undefined) | 3.49 µM | IC50 (HEPG2TOX_HILL_SLOPE 5.39, HEPG2TOX_R_SQUARED 0.713, PBLUC_HILL_SLOPE 10.6, PBLUC_R_SQUARED 0.548, read-out: LUCIFERASE INFECTION ASSAY - IC50): 2.84 µM
CN(CCOc1ccccc1)C(=O)c1ccc(Cl)c(S(=O)(=O)N(Cc2ccccc2)c2ccccc2)c1 | > 10 µM | IC50 (HEPG2TOX_HILL_SLOPE 5.5, HEPG2TOX_R_SQUARED 0.0292, PBLUC_HILL_SLOPE 16, PBLUC_R_SQUARED 0.261, read-out: LUCIFERASE INFECTION ASSAY - IC50): 9.56 µM
